Experimental data reported in US8895502B2, “β2-glycoprotein I peptide inhibitors” (Kansas State University Research Foundation, priority 2010, dated 2014).
Entries after “also recorded” stand apart in the source; their conditions may differ. Ends that are not written are not given here.

Tests used:
Assay type in all cases: in vivo, mouse
C57Bl/6 mice = experiment: Intestinal ischemia/reperfusion, mucosal injury score; set-up: key to Injury: + indicates significant difference from Sham treated mice; − indicates not significantly different from C57B1/6 sham treated mice; +/− indicates no significant difference from either C57B1/6 mice subjected to either Sham or IR; conditions: for IR-induced intestinal mucosal damage (injury score): C57Bl/6 mice, peptide 40 μM i.v. 5 min prior to ischemia, 2 hours reperfusion; for IR-induced intestinal injury: Example 2, peptides administered after reperfusion (15-, 30-, or 60-minutes post-reperfusion)
Experimental: (§1) C57Bl/6 and Rag-1^−/− mice were subjected to ischemia followed by reperfusion similar to previously described studies (Moses, T. et al., J. Leukoc. Biol. 86:971-980 (2009)). Briefly, ketamine (16 mg/kg) and xylazine (80 mg/kg) were used to anesthetize the mice. Buprenorphine (0.06 mg/kg) was then administered for pain. A midline laparotomy was performed to expose the abdominal cavity of the mice, which were then allowed to equilibrate for 30 min. Body temperature was maintained at 37° C. using a water-circulating heat pad. Placing a warm, saline moistened piece of gauze over the abdominal cavity prevented peritoneal desiccation. […] Ischemia was noted by the intestine changing from a pink color to a gray color. After 30 min of ischemia, the clamp was removed and the intestines were allowed to reperfuse for 5, 10, 15, or 120 min. […] Mice treated with the various β2-GPI peptides underwent the same procedure with i.v. administration of the peptides (40 μM) 5 min prior to artery occlusion. Peptides 296, 305, and 296Cys to Ser were dissolved in N. Saline (0.9% NaCl) and injected i.v. in 100-μL volumes. Peptides 100 and 181 were dissolved in DMSO prior to diluting 1/100 in N. Saline. Additional mice received peptides prior to Sham treatment.
Immediately after euthanasia, a 2-cm mid jejunum tissue section was immediately fixed in 10% buffered formalin, embedded in paraffin, and 8 μm sections were cut transversely and hematoxylin and eosin (H&E) stained. Mucosal injury was graded on a six-tiered scale, as described previously (Fleming, S. D. et al., J. Immunol. 169:2126-2133 (2002)). Briefly, the average damage score of the intestinal section (75-150 villi) was determined after grading each villus. […] Photomicrographs were obtained from H&E stained slides using a 20×, 0.5 Plan Fluor objective on a Nikon 80i microscope and images acquired at room temperature using a Nikon DS-5M camera with DS-L2 software.
Ischemia/reperfusion was performed on ketamine/xylazine anesthetized mice as described in Example 1 above. After 2 hours of reperfusion, the mice were euthanized and sera, liver, spleen, and 2 cm sections of the small intestine, approximately 10 cm distal to the gastroduodenal junction, were collected for histological and other analyses. Mice treated with the various β2-GPI peptides underwent the same procedure with i.v. administration of the peptides. Most studies assumed 2 mL total blood volume in a mouse and administered peptides to a final concentration of 40 μM at 5 min prior to ischemia. Dose response studies administered 1-40 μM peptide at 5 min prior to ischemia and time course studies administered 40 μM peptide at 5 min prior to ischemia, and at 15-, 30- or 60-min post-ischemia (i.e., during reperfusion).
After euthanasia, tissue sections were fixed and stained following the procedures outlined in Example 1. Mucosal injury (SMI) was also graded on a six-tiered scale, as described in Example 1.

IL-12 = experiment: Intestinal IR, ex vivo IL-12 generation; set-up: key to IL-12p40 Induction: + indicates significant difference from Sham treated mice; − indicates not significantly different from C57B1/6 sham treated mice; +/− indicates no significant difference from either C57B1/6 mice subjected to either Sham or IR; conditions: for IL-12p40 Induction: C57Bl/6 mice subjected to IR, peptide 40 μM i.v. 5 min prior to artery occlusion; for IR induced IL-12 production: C57Bl/6 mice, peptide prior to IR
Experimental: as §1
(§2) Ex vivo generation of eicosanoids by mid-jejunal tissue was determined. Immediately after collection, a 2-cm intestinal section from each mouse was minced, washed, resuspended in 37° C. oxygenated Tyrode's buffer (Sigma-Aldrich; St. Louis, Mo.), incubated at 37° C. for 20 minutes, and the supernatant collected. PGE2 and LTB4 concentrations were determined using enzyme immunoassay kits (Cayman Chemical; Ann Arbor, Mich.). IL-6 and IL-12 concentrations were determined using a Milliplex MAP immunoassay kit (Millipore) and read on a Milliplex Analyzer (Millipore). All eicosanoid and cytokine concentrations were standardized to the total tissue protein content.
(§3) Total peroxidase, LTB4, PGE2, IL-6, IL-12p40, and IL-12p70 concentrations were determined using the procedures described in Example 1.

PGE2 = experiment: Intestinal IR, ex vivo PGE2 generation; set-up: key to PGE2 Production: + indicates significant difference from Sham treated mice; − indicates not significantly different from C57B1/6 sham treated mice; +/− indicates no significant difference from either C57B1/6 mice subjected to either Sham or IR; conditions: for IR-induced intestinal PGE2 production: C57Bl/6 mice, peptide 40 μM prior to IR
Experimental: C57Bl/6 and Rag-1^−/− mice were subjected to ischemia followed by reperfusion similar to previously described studies (Moses, T. et al., J. Leukoc. Biol. 86:971-980 (2009)). Briefly, ketamine (16 mg/kg) and xylazine (80 mg/kg) were used to anesthetize the mice. Buprenorphine (0.06 mg/kg) was then administered for pain. A midline laparotomy was performed to expose the abdominal cavity of the mice, which were then allowed to equilibrate for 30 min. Body temperature was maintained at 37° C. using a water-circulating heat pad. Placing a warm, saline moistened piece of gauze over the abdominal cavity prevented peritoneal desiccation. […] Ischemia was noted by the intestine changing from a pink color to a gray color. After 30 min of ischemia, the clamp was removed and the intestines were allowed to reperfuse for 5, 10, 15, or 120 min. […] Peptides 296, 305, and 296Cys to Ser were dissolved in N. Saline (0.9% NaCl) and injected i.v. in 100-μL volumes. Peptides 100 and 181 were dissolved in DMSO prior to diluting 1/100 in N. Saline. Additional mice received peptides prior to Sham treatment.
as §2, §3

F4/80 = experiment: Intestinal IR, F4/80 macrophage marker immunohistochemistry; set-up: key to F4/80 Deposition: + indicates significant difference from Sham treated mice; − indicates not significantly different from C57B1/6 sham treated mice; +/− indicates no significant difference from either C57B1/6 mice subjected to either Sham or IR; conditions: for F4/80 Deposition: C57Bl/6 mice subjected to IR, peptide 40 μM i.v. 5 min prior to artery occlusion; for expression of the mature macrophage marker (F4/80) after IR: C57Bl/6 mice, peptide prior to IR
Experimental: as §1
After euthanasia, an additional 2-cm intestinal section from each mouse was immediately snap frozen in O.C.T. freezing medium and 8 μm sections were placed on slides for immunohistochemistry. The C3 deposition and F4/80 expression on the tissue sections were detected by staining with a purified rat-anti-mouse C3 (Hycult Biotechnologies; Plymouth Meeting, Pa.) or F4/80 (eBioscience; San Diego, Calif.) antibody followed by a Texas-red conjugated donkey-anti-rat IgG secondary antibody (Jackson Immunoresearch). CD31 (PECAM-1) and CD106 (VCAM-1) were detected by FITC conjugated rat anti-mouse CD31 or CD106 (Biolegend; San Diego, Calif.) antibodies. Each experiment contained serial sections stained with the appropriate isotype control antibodies. All slides were mounted with ProLong Gold (Invitrogen). Images were obtained at room temperature using a Nikon Eclipse 80i microscope equipped with a CoolSnap CF camera (Photometrics) and analyzed using Metavue software (Molecular Devices). The fluorescence was semi-quantitated using Image J software (NIH) using the fluorescent area fraction after setting threshold for each experiment. The average of the isotype control was subtracted from each photo.

[1] = C57Bl/6 mice subjected to IR, peptide 40 μM i.v. 5 min prior to artery occlusion
[2] = 10 μM peptide 5 min prior to IR
[3] = administered at 60 min post-reperfusion
[4] = administered at either 5- or 15-min post-reperfusion, 2-hour assay
[5] = treatment at both 30 min and 60 min post-reperfusion
[6] = administered at 15 min post-reperfusion

Substance | Injury (C57Bl/6 mice; [1]) | IR-induced intestinal mucosal damage (injury score) (C57Bl/6 mice) | IL-12p40 Induction (IL-12) | PGE2 Production (PGE2; [1]) | IR-induced intestinal PGE2 production (PGE2) | F4/80 Deposition (F4/80) | expression of the mature macrophage marker (F4/80) after IR (F4/80) | Injury (C57Bl/6 mice; [2]) | IR-induced intestinal injury (C57Bl/6 mice) | intestinal injury (C57Bl/6 mice; [3]) | intestinal injury (C57Bl/6 mice; [4]) | intestinal injury (C57Bl/6 mice; [5]) | IR induced IL-12 production (IL-12) | PGE2 Production (PGE2; [2]) | PGE2 Production (PGE2; [6]) | intestinal damage (C57Bl/6 mice; 4 μM peptide 5 min prior to IR) | IR-induced intestinal mucosal damage (injury score) (C57Bl/6 mice; listed as 296c-s)
H-KNISFACNPGFFLNG-NH2 [peptide 100, 16, reference compound] | + | IR-induced intestinal damage similar to untreated mice | +/− | + | sustained inflammation similar to untreated mice | + | reduced macrophage to Sham levels |  |  |  |  |  |  |  |  |  | 
H-KKCSYTVEAHCRDGTIEIPSCFKEHS-OH (cysteine pairing not given here) [peptide 305, 10] | − | attenuated mucosal damage | − | +/− | did not attenuate; also recorded: but not eicosanoid production | − | reduced macrophage to Sham levels | optimally attenuated | effective for attenuating | attenuated | effective in preventing intestinal injury | significantly decreased | attenuated; also recorded: inhibited | optimally attenuated | attenuated |  | 
H-IPSCFKEHSSLAFWKTDASELTPC-NH2 (cysteine pairing not given here) [peptide 322, 18] | + | IR-induced intestinal damage similar to untreated mice | + | + | sustained inflammation similar to untreated mice | + | increased in response to IR |  |  |  |  |  | did not inhibit |  |  |  | 
H-IHFYSKNKEKKSSYTVEAHSRDGTI-OH [peptide 296Cys-Ser] | − | attenuated mucosal damage; also recorded: confirmed to attenuate injury | − | − | attenuated; also recorded: blocked | − | reduced macrophage to Sham levels | optimally attenuated | effective for attenuating | attenuated | effective in preventing intestinal injury | significantly decreased | attenuated; also recorded: inhibit | optimally attenuated | attenuated | attenuated | attenuate actual epithelial injury more effectively
H-IHFYCKNKEKKCSYTVEAHCRDGTI-OH (cysteine pairing not given here) [peptide 296] | − | attenuated mucosal damage | − | − | attenuated; also recorded: blocked | − | reduced macrophage to Sham levels |  |  |  |  |  | attenuated; also recorded: inhibit |  |  |  | 
